Among the data in a melting point compilation (Tetko et al.; mined from patent text by program, amines drawn as free bases though some values may be those of a salt) are melting point values, retold here.

Broadly, the melting point is the temperature, or range, at which the solid turns liquid.

On to `CCn1ncc2c3c(cnc21)C(N)(OC)N=C1N=CNN13` (configuration not stated), for which the melting point fell in the range of 215 to 216 °C.
The value for `CCCCCCCCc1ccc(-c2ccc(O)c(F)c2)nc1` was 73.5 to 74.6 °C.
In the case of `CC(C)(C)C(=O)c1c[nH]c2ncc(N3CCc4ccccc4C3=O)nc12`, the melting point is 113 to 115 °C.
As for `NNc1nccc2nc(-c3ccccc3)nn12`, the figure is 216 to 218 °C.
`Fc1ccc(C#Cc2ccnc(Cl)n2)cc1` showed a melting point of 125 to 126 °C.
`CCn1c(C(O)(c2cccc(F)c2)c2cccc(F)c2)nc(-c2ccncc2)c1-c1ccc(Cl)cc1` registered a melting point of 225 to 227 °C.
In turn, `CC(=O)C=Cc1ccc2c(c1)Cc1ccccc1-2` returned a melting point of 146 to 148 °C.
As for `Cc1nn(-c2c(Cl)cc(C(F)(F)F)cc2Cl)nc1C(=O)Nc1ccccc1`, the figure is 185 to 186 °C; as for `COCc1c(C(=O)OC(CO)CO)ncc2[nH]c3ccc(OCc4ccccc4)cc3c12`, 190 to 192 °C; as for `COC(=O)c1ccc(C(=O)Nc2ccc3ccc(Cl)nc3n2)cc1`, 275 °C.
With `CC12CCC(C(=Cc3ccc(CC(SSCC(=O)O)C(=O)O)cc3)C1=O)C2(C)C` (configuration not stated), the melting point is 116 °C.
The molecule `COc1cc(-n2nc3ccc(Cl)cn3c2=O)c(F)cc1Cl` returned a melting point of 140 to 142 °C.
The molecule `COC(=O)c1nn(Cc2ccccc2)c2c1CCc1cc(OCc3cncnc3)ccc1-2` returned a melting point of 202 to 203 °C.
Regarding `CC(Oc1ccc(Oc2ccc(C#N)cc2)cc1)C(=O)Nc1ccccc1` (configuration not stated), the melting point lay within 133 to 134 °C.
The molecule `CC(C)(Oc1ccc(CCC(=O)c2ccc(-c3ccc(OC(F)(F)F)cc3)s2)c(Cl)c1Cl)C(=O)O` had a melting point of 135 to 136 °C.
Regarding `CCCCCCCCCCCCCCCCCNC(=O)OCCOCCOC(=O)NCc1ccccn1`, the melting point fell in the range of 91 to 92 °C.
As for `Cc1ccc(N2C(=O)C(N)=C(C(=O)c3ccc(C(C)C)cc3)C2c2ccc(OC(F)(F)F)cc2)nn1` (configuration not stated), the figure is 258 to 260 °C.
The value for `CCC(O)c1c(C)c(NC(=O)CC(C)(C)C)c(C)c2c1OCC2c1ccc(C(C)C)cc1` (configuration not stated) was 165 to 167 °C.
The molecule `CCOC(=O)c1[nH]c(C)c(C(C)(C)C)c1C` showed a melting point of 108 to 110 °C.
Molecule `Cc1[nH]c2ccc([N+](=O)[O-])cc2c1Cn1ccnc1` had a melting point of 240 to 242 °C.
As to `COc1ccccc1N1CCN(CCNC(=O)CCN2CCC(c3c[nH]c4cc(F)ccc34)CC2)CC1`, the melting point was in the range of 68 to 70 °C.
As to `Cc1oc(-c2ccccc2)nc1COc1ccc(COc2ncccc2C=O)cc1`, the melting point lay in the range of 97 to 98 °C.
The value for `CCC(CC)CNC(=O)c1ccc2cccc(Cc3ccc(C(=O)OC)cc3OC)c2c1` was 130 °C; that for `N#Cc1[nH]c(-c2ccc(Cl)cc2Cl)nc1N` was 223 to 225 °C.
As for `N[C@@H](Cc1c[nH]c2ccccc12)C(=O)N(N)C(=O)[C@H](Cc1c[nH]cn1)NC(=O)[C@@H]1CCC(=O)N1`, the figure is 165 to 169 °C.
`CC(C)(C)c1cc(SC#N)cc(C(C)(C)C)c1O` registered a melting point of 61.5 to 63 °C.
In turn, `O=C(Nc1ccccc1)O[C@@H]1CN=C(c2ccoc2)O[C@H]1c1ccccc1` (racemic) displayed a melting point of 130 °C.
In the case of `Cn1cc(Br)cc(Nc2cc(C3CC3)n[nH]2)c1=O`, the melting point was 203 to 204 °C.
Molecule `CCC(=O)Nc1cc(S(=O)c2ccccc2)ccc1NC(=NC(=O)OC)NC(=O)OC` (configuration not stated) had a melting point of 193 to 195 °C.
The value for `CCCCOc1nc(N)c2[nH]c(=O)n(CCS(=O)(=O)c3cccc(CC(=O)OC)c3)c2n1` was 246 to 247 °C; that for `Cc1ccc(NC(=O)c2ccc(C(=O)Nc3ccccc3N)s2)cc1Nc1nccc(-c2cccnc2)n1` was 280 °C.
`CCNCCn1c(-c2ccc(Br)cc2)cc2c1CCSC2` registered a melting point of 84 to 85 °C.
As for `CCOC(=O)c1cc(NCc2c(C)cccc2CC)c2nc(COC)n(C)c2c1`, the figure is 106 to 107 °C.
`Nc1cccc(Oc2ccc(Oc3cccc(N)c3)cc2)c1` registered a melting point of 98 to 99 °C.
As to `CC(C)N(C(=O)CBr)C(C)C`, the melting point was 64 to 65.5 °C.
`COC(=O)[C@@]1(c2ccc3ccccc3c2)CC1(c1ccccc1)c1ccccc1` returned a melting point of 138 to 139 °C.
`CCOC(=O)c1ccc(CSc2nnc(C)s2)cc1`: the melting point lay within 55 to 58 °C.
As for `O=C1C(c2ccc(O)cc2)=C(Br)c2cc(O)ccc21`, the figure is 245 °C; as for `CN1C(=O)CSC(c2cccc(Cl)c2)c2cc(C(N)(c3ccc(Cl)cc3)c3cncn3C)ccc21` (configuration not stated), 218 °C; as for `COc1cc2c(c(Cl)c1Cl)C(=O)C(CCCCCl)C2` (configuration not stated), 92 °C.
In the case of `O[C@@H]1CNCC[C@H]1NCc1ccccc1` (relative stereo), the melting point is 136 °C.
As for `Cc1ccc(CN2CCSC2=O)cc1`, the figure is 49 to 50 °C.
The molecule `N#Cn1c(-c2ccc(Cl)cc2)c([N+](=O)[O-])c(-c2ccc(Cl)c(Cl)c2)c1C(F)(F)F` had a melting point of 98 to 100 °C.
`COc1ccc2oc(=O)c(-c3ccccc3)c(OCCN3CCOCC3)c2c1`: the melting point amounted to 118 °C.
As for `Cc1nc2c(s1)Cc1cc(Cl)ccc1-2`, the figure is 94 °C; as for `CN(C)c1c([N+](=O)[O-])c(C(C)(C)C)nn1-c1c(Cl)cc(C(F)(F)F)cc1Cl`, 81 to 83 °C.
As for `COc1ccc(C(=O)N2CCNC2=Nc2c(Cl)cccc2Cl)cc1OC`, the figure is 201 to 204 °C; as for `CCc1ccc(Cl)c(S(=O)(=O)NC(=O)c2cn3cc(C(F)(F)F)cc(Cl)c3n2)c1`, 214 to 215 °C.
Regarding `Fc1ccc(C2C=C(C(F)(F)F)NC3=C2SCC=C3)cc1Br` (configuration not stated), the melting point lay within 195 to 198 °C.
As for `COc1cccc(NC(=O)NC2N=C(c3ccccc3)c3cccc(C)c3N(C)C2=O)c1` (configuration not stated), the figure is 215 to 217 °C; as for `Cc1ccc(Cl)nc1N1CCCNC1=C[N+](=O)[O-]`, 176 to 183 °C.
In turn, `CC(C)n1nc(-c2c(OCC(=O)NC3CC3)nc(N)nc2-c2ccccc2)ccc1=O` had a melting point of 87 to 92 °C.
On to `Cc1ccc(Cc2cnc(NCCCNc3ccccn3)[nH]c2=O)cn1`, for which the melting point lay within 163 to 165 °C.
With `OCC1OC(n2cnc3c(NCCc4cn(Cc5ccc(Cl)cc5)c5ccccc45)ncnc32)C(O)C1O` (configuration not stated), the melting point was 181 °C.
`CCC1c2c(ncn2CC)CCN1C(=S)NC(C)C` (configuration not stated): the melting point was 195 °C.
Molecule `COc1ccc(N2C(=O)N(c3cccc(C#N)c3)c3nc(Nc4cccc(CCO)c4)ncc3C2C)cc1` (configuration not stated) registered a melting point of 195 to 200 °C.
In turn, `CCCCCCCCCCCCCCC[C@H]1O[C@@H]1CO` returned a melting point of 77 to 78 °C.
As for `COc1cc(C(O)CCCCCCCCCCOCc2ccccc2)ccc1OCc1ccccc1` (configuration not stated), the figure is 43 to 45 °C; as for `CN1Cc2c(/C=C\Cl)ncn2-c2cccc(Cl)c2C1=O`, 205 to 207 °C; as for `CN1CCC2(CC1)NC(=S)N(c1ccc(C#N)c(C(F)(F)F)c1)C2=O`, 229 to 230 °C.
Molecule `C[C@]1(CN2CCC(Nc3ccc(OC(F)(F)F)cc3)CC2)Cn2cc([N+](=O)[O-])nc2O1` came in with a melting point of 108 to 109 °C.
For `Cc1nc(NC(=N)N)sc1C(=O)Nc1cccc(OCC(=O)OC(C)(C)C)c1`, the melting point is 204 °C.
As for `CC(=O)N1CCCc2c(c3ccc(-n4ccc(-c5ccc(C(F)(F)F)nc5)cc4=O)cc3n2C)C1`, the figure is 156 to 162 °C; as for `NS(=O)(=O)c1cnc(-c2cn(-c3cc(C(F)(F)F)cc(-c4ccc(C(F)(F)F)cc4)n3)cn2)s1`, over 266 °C.
As for `CCCCCCCCCCCCCCCCOc1ccccc1-c1ccccc1`, the figure is 35 to 37 °C; as for `O=C1C(c2ccccc2)=C(c2ccccc2)C(=O)N1c1ccccc1`, 173 to 174 °C.
The value for `CCCCCCCCCCCCCCCCCCOc1cc(O)cc(C(=O)OC)c1` was 93 to 94 °C.
Regarding `N#Cc1[nH]c(=O)n(-c2ccc(Cl)cc2)c1C#N`, the melting point is 242 to 245 °C.
The value for `Clc1cnc2c(C(Cl)Cl)c(Cl)ccc2c1` was 154 °C; that for `CCC(O)CN1CCN(C2Cc3ccc(F)cc3Sc3ccc(N)cc32)CC1` (configuration not stated) was 184 to 186 °C.
Molecule `Nc1ccc(-c2noc(-c3cnn4c(C(F)(F)F)cc(-c5ccc(C(F)(F)F)cc5)nc34)n2)cn1` returned a melting point of 257 °C.
As for `CCOc1cc(N(CC)CC)ccc1C(=O)c1nc2ccccc2nc1C(=O)O`, the figure is 175 to 176 °C.
As for `CCCOc1cc([N+](=O)[O-])cc2cc(C(=O)OC)oc12`, the figure is 157 °C; as for `CCOCCn1c(C)c(C2(c3ccc(N(CC)CC)cc3CC)OC(=O)c3ccccc32)c2ccccc21` (configuration not stated), 156 to 158 °C.
In turn, `Nc1ccc(CCC(=O)N(c2ccccc2)c2ccccc2)cc1N` came in with a melting point of 122 to 123 °C.
Consider `CCOC(=O)c1cn(C)c2ccsc2c1=O`, for which the melting point lay in the range of 122 to 128 °C.
As for `O=C(O)c1ccc(-c2ccc3cc(OCc4ccccc4)c(C45CC6CC(CC(C6)C4)C5)cc3c2)cc1`, the figure is 305 to 310 °C.
For the molecule `O=C(NCc1ccccn1)c1cc(OCC(F)(F)F)ccc1O`, the melting point was 143 to 145 °C.
Molecule `O=C(Nc1nnco1)C(c1ccccc1)c1ccccc1` displayed a melting point of 131 to 132 °C.
As for `CCCn1cc(C2CCC(=O)CC2)c2cc(C#N)ccc21`, the figure is 103 to 104 °C; as for `O=C1CCN(c2ccncn2)CC1`, 61 to 65 °C.
As for `COC(=O)C1CCN(c2ccc(Cl)c(CBr)c2Cl)C1` (configuration not stated), the figure is 94 °C; as for `c1c(NC2CCCC2)nc(NC2CCCC2)nc1N1CCNCC1`, 142 to 148 °C; as for `CCCc1[nH]c(C(=O)OCC)c(C)c1CCC`, 84 to 87 °C.
In turn, `O=C(Nc1cccc2c(OC(=O)c3c(Cl)cccc3Cl)ccnc12)c1c(Cl)cccc1Cl` returned a melting point of 248 °C.
With `COc1cccc(N(CC(=O)N(C)c2ccccc2)C(=O)CNC(=O)Nc2cccc(CO)c2)c1`, the melting point amounted to 142 °C.
For the molecule `N#CC(NC(=O)c1ccccc1)n1cccn1` (configuration not stated), the melting point lay in the range of 169 to 174 °C.
